This note sets out measurements from patent US12570650B2, “6-substituted pyridazine compounds as SMARCA2 and/or SMARCA4 degraders” (Aurigene Oncology Limited, priority 2020, dated 2026).

Type in all cases: cell-based
One assay deals with SK-MEL-5 cells. The assay is described as follows: Anti proliferative activity, Cell Titer Glo assay, SK-MEL-5. The conditions noted are these: Homo sapiens, retreatment Day 4, terminated day 8, CellTiter-Glo. As to the method:
Example-P3: Determination of Anti Proliferative Activity of Compounds by Cell Titer Glo®(Promega) Assay
Cells were seeded into 96-well plates and the plate was incubated in 37 degrees incubator overnight. The next day, compounds were diluted 3-fold to cover 9-point concentration range in DMSO. Intermediate plate dilution was prepared in media followed with compound treatment in cells. Retreatment of cells with compound dilutions was performed on Day 4 and assay was terminated on day 8 for SK-MEL-5 cells using CellTiter-Glo and the plate was kept on orbital shaker for 20 minutes at RT. Assay was terminated on day 6 for RERF-LC-A1 without a compound retreatment. Luminescence signal was recorded on VICTOR^3 instrument. Percent inhibition of proliferation was calculated at each concentration and plotted against the compound concentration. EC50 value was calculated using GraphPad software.

Another assay addresses T1, SMARCA4 (Homo sapiens, UniProt P51532).
T1 construct: Determination of SMARCA2 and SMARCA4 Degradation in VCaP Cells by Western Blot; endogenous in cells; host or cells: VCaP (ATCC CRL-2876)
The assay is described as follows: SMARCA4 degradation in VCaP cells by Western blot. The conditions noted are these: 16 hours. How it is done: On the third day, compounds of present invention were added to cells from 10 mM stocks made in DMSO (Sigma Cat no. D2650). Each concentration of compound was tested with DMSO not exceeding final percentage of 0.3 in the cells. […] Equal amount of protein was loaded on SDS PAGE gel for electrophoresis. […] Percentage of SMARCA2 or SMARCA4 degradation was calculated using formula % Degradation=100−(normalized band intensity in treated sample/normalized band intensity in DMSO sample)*100.
Background: Immunoblotting shows a protein as a band on a membrane.

Another assay concerns the target T2, SMARCA2 (Homo sapiens, UniProt P51531).
T2 construct: Determination of SMARCA2 and SMARCA4 Degradation in VCaP Cells by Western Blot; endogenous in cells; host or cells: VCaP (ATCC CRL-2876)
The assay is described as follows: SMARCA2 degradation in VCaP cells by Western blot. Particulars: 16 hours. As to the method: Example-P2: Determination of SMARCA2 and SMARCA4 Degradation in VCaP Cells by Western Blot
VCaP (ATCC CRL-2876) was plated in 6 well plates using complete Dulbecco's Modified Eagle's Medium. On the third day, compounds of present invention were added to cells from 10 mM stocks made in DMSO (Sigma Cat no. D2650). Each concentration of compound was tested with DMSO not exceeding final percentage of 0.3 in the cells. Cells were incubated with the compound for 16 hours followed by harvesting with 1×RIPA lysis buffer (Thermo Fischer, catalogue number #89900) containing protease inhibitor cocktail (Sigma catalogue number #P-8340). Equal amount of protein was loaded on SDS PAGE gel for electrophoresis. Western blot was carried out for detection of either SMARCA2 (Cell signalling technologies, catalogue number #11966) or SMARCA4 antibody (Cell signalling technologies, catalogue number #52251). Beta-Tubulin antibody (Cell signalling technologies, catalogue number #86298) was used as loading control. Percentage of SMARCA2 or SMARCA4 degradation was calculated using formula % Degradation=100−(normalized band intensity in treated sample/normalized band intensity in DMSO sample)*100.

By EC50 is commonly meant the concentration at which the effect is half-maximal. Low values mean a more potent agent, high ones a less potent agent.

A value given as a limit tells only on which side of the number the result lay.

T1 sequence (P51532 whole entry): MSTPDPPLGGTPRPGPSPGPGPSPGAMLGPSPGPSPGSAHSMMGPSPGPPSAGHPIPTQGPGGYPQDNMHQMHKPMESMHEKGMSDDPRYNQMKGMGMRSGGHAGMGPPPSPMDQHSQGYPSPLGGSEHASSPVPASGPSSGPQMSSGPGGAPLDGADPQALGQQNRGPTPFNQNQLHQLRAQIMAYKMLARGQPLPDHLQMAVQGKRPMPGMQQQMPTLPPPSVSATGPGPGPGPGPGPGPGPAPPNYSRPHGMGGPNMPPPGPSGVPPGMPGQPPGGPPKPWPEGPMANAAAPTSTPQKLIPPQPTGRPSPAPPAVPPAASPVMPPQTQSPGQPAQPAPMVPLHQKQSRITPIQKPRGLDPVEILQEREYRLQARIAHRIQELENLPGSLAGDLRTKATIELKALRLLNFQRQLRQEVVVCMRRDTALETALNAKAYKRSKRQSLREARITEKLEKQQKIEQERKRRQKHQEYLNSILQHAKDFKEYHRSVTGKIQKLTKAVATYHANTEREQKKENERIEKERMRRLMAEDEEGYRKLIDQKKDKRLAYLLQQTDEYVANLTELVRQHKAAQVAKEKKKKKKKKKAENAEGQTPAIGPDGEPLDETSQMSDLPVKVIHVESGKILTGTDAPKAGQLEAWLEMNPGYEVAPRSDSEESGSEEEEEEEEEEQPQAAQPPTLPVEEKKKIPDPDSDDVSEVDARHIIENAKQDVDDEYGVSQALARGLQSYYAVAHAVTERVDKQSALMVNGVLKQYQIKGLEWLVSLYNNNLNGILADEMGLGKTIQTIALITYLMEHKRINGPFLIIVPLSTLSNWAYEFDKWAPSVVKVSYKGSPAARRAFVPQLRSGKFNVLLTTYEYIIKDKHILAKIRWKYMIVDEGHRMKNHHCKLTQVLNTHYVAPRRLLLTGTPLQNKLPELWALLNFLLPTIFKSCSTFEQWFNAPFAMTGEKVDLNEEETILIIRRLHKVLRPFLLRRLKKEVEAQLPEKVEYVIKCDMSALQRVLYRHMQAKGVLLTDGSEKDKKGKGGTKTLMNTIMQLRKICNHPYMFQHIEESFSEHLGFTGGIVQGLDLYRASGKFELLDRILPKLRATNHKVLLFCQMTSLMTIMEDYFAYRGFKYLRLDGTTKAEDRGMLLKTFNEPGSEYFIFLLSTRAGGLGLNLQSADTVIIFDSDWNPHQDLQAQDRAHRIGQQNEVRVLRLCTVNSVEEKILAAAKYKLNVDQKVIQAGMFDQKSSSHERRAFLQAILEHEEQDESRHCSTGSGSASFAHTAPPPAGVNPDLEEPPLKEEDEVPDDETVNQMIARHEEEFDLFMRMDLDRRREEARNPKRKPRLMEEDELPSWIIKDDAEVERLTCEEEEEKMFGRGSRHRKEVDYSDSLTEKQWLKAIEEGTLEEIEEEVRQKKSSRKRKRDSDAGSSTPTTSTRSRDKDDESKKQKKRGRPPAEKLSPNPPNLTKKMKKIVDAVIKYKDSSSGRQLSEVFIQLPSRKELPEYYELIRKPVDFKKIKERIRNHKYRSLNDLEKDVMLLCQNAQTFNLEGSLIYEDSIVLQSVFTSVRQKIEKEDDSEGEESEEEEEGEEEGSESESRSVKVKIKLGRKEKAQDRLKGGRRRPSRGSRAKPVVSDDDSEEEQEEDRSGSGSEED
T2 sequence (P51531 whole entry): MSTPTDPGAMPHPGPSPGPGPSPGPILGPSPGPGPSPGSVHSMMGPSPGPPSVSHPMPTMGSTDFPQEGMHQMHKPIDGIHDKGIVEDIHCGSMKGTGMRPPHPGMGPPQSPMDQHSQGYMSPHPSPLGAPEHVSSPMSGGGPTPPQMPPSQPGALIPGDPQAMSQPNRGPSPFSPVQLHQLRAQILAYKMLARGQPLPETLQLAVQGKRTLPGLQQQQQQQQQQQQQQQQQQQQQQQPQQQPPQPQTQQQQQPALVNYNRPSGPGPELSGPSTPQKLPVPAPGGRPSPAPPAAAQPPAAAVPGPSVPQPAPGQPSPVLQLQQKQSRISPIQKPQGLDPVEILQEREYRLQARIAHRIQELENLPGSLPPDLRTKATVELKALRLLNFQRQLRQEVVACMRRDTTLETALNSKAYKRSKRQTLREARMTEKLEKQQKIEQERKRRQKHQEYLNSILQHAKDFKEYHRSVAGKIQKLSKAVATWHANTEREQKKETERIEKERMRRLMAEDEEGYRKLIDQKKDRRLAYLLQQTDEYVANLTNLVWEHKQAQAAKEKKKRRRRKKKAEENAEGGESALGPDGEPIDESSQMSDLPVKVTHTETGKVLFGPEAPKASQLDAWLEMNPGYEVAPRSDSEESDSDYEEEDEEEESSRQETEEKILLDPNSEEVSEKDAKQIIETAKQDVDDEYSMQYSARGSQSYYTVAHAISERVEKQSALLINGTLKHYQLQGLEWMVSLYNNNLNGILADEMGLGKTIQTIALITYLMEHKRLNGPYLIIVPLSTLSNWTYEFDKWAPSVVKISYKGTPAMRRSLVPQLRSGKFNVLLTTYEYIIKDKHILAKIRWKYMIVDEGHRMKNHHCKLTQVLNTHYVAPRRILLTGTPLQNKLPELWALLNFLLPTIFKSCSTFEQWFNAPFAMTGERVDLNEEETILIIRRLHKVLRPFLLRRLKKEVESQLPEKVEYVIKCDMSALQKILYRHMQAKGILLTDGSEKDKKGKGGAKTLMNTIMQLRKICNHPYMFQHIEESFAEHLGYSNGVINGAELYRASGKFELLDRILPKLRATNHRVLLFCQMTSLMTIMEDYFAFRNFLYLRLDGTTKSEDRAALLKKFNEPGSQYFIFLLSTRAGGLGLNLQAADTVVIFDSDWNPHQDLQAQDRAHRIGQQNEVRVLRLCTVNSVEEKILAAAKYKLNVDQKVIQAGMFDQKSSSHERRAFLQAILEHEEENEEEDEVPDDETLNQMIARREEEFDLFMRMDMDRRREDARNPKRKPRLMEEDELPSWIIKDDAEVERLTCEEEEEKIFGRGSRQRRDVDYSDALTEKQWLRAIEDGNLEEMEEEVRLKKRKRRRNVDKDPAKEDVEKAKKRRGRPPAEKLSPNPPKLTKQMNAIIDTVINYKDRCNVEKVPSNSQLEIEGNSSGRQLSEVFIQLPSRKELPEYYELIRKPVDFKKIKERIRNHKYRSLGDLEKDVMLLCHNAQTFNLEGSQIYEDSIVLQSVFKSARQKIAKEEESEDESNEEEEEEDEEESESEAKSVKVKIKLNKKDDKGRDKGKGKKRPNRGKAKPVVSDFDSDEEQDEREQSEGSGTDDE

For `Cc1ncsc1-c1ccc([C@H](C)NC(=O)[C@@H]2C[C@@H](O)CN2C(=O)[C@@H](NC(=O)CC2CCC(c3ccc(-c4cnnc(-c5ccccc5O)c4)cc3)CC2)C(C)(C)C)cc1` (stereo partly drawn) [Compound 17, (2S,4R)-4-hydroxy-1-((S)-2-(2-(4-(4-(6-(2-hydroxyphenyl)pyridazin-4-yl)phenyl)cyclohexyl)acetamido)-3,3-dimethylbutanoyl)-N-((S)-1-(4-(4-methylthiazol-5-yl)phenyl)ethyl)pyrrolidine-2-carboxamide], the EC50 in the assay on SK-MEL-5 cells (SK-MEL-5, SK-MEL-5 cells) was greater than 500 nM.

With `Cc1ncsc1-c1ccc([C@H](C)NC(=O)[C@@H]2C[C@@H](O)CN2C(=O)[C@@H](NC(=O)CN2CCC(c3ccc(-c4cnnc(-c5ccccc5O)c4)cc3F)CC2)C(C)(C)C)cc1` [Compound 15, (2S,4R)-1-((S)-2-(2-(4-(2-fluoro-4-(6-(2-hydroxyphenyl)pyridazin-4-yl)phenyl)piperidin-1-yl)acetamido)-3,3-dimethylbutanoyl)-4-hydroxy-N-((S)-1-(4-(4-methylthiazol-5-yl)phenyl)ethyl)pyrrolidine-2-carboxamide], on SMARCA4, the “Percent degradation (at 100 nM) SMARCA4” value is reported as 0%. For the same molecule, the half-maximal effective concentration (EC50) in the assay on SK-MEL-5 cells (SK-MEL-5, SK-MEL-5 cells) is greater than 500 nM. In addition, the “Percent degradation (at 100 nM) SMARCA2” value at SMARCA2 worked out at 60%.

The molecule `Cc1ncsc1-c1ccc([C@H](C)NC(=O)[C@@H]2C[C@@H](O)CN2C(=O)[C@@H](NC(=O)CN2CCC(c3ccc(-c4cnnc(-c5ccccc5O)c4)cc3)C2)C(C)(C)C)cc1` (stereo partly drawn) [Compound 22, (2S,4R)-4-hydroxy-1-((2S)-2-(2-(3-(4-(6-(2-hydroxyphenyl)pyridazin-4-yl)phenyl)pyrrolidin-1-yl)acetamido)-3,3-dimethylbutanoyl)-N-((S)-1-(4-(4-methylthiazol-5-yl)phenyl)ethyl)pyrrolidine-2-carboxamide] showed an EC50 in the assay with SK-MEL-5 cells (SK-MEL-5, SK-MEL-5 cells) greater than 500 nM.

Regarding `Cc1ncsc1-c1ccc([C@H](C)NC(=O)[C@@H]2C[C@@H](O)CN2C(=O)[C@@H](NC(=O)CN2CCC(c3ccc(-c4cnnc(-c5cc(F)ccc5O)c4)cc3)CC2)C(C)(C)C)cc1` [Compound 13, (2S,4R)-1-((S)-2-(2-(4-(4-(6-(5-fluoro-2-hydroxyphenyl)pyridazin-4-yl)phenyl)piperidin-1-yl)acetamido)-3,3-dimethylbutanoyl)-4-hydroxy-N-((S)-1-(4-(4-methylthiazol-5-yl)phenyl)ethyl)pyrrolidine-2-carboxamide], the “Percent degradation (at 100 nM) SMARCA4” value on SMARCA4 is reported as 0%. The EC50 with SK-MEL-5 cells (SK-MEL-5, SK-MEL-5 cells) is greater than 500 nM. Moreover, on SMARCA2, the “Percent degradation (at 100 nM) SMARCA2” value is reported as 17%.

With `Cc1ncsc1-c1ccc([C@H](C)NC(=O)[C@@H]2C[C@@H](O)CN2C(=O)[C@@H](NC(=O)CN2CCC(O)(c3ccc(-c4cnnc(-c5ccccc5O)c4)cc3)CC2)C(C)(C)C)cc1` [Compound 32, (2S,4R)-4-hydroxy-1-((S)-2-(2-(4-hydroxy-4-(4-(6-(2-hydroxyphenyl)pyridazin-4-yl)phenyl)piperidin-1-yl)acetamido)-3,3-dimethylbutanoyl)-N-((S)-1-(4-(4-methylthiazol-5-yl)phenyl)ethyl)pyrrolidine-2-carboxamide], the “Percent degradation (at 100 nM) SMARCA4” value at SMARCA4 worked out at 0%. Also, the EC50 in the assay with SK-MEL-5 cells (SK-MEL-5, SK-MEL-5 cells) was greater than 500 nM. Also, the “Percent degradation (at 100 nM) SMARCA2” value on SMARCA2 is recorded as 57%.

Turning to `Cc1ncsc1-c1ccc([C@H](C)NC(=O)[C@@H]2C[C@@H](O)CN2C(=O)[C@@H](NC(=O)CN2CCCC(c3ccc(-c4cnnc(-c5ccccc5O)c4)cc3)C2)C(C)(C)C)cc1` (stereo partly drawn) [Compound 20, (2S,4R)-4-hydroxy-1-((2S)-2-(2-(3-(4-(6-(2-hydroxyphenyl)pyridazin-4-yl)phenyl)piperidin-1-yl)acetamido)-3,3-dimethylbutanoyl)-N-((S)-1-(4-(4-methylthiazol-5-yl)phenyl)ethyl)pyrrolidine-2-carboxamide], the “Percent degradation (at 100 nM) SMARCA4” value at SMARCA4 amounted to 0%. This molecule had an EC50 with SK-MEL-5 cells (SK-MEL-5, SK-MEL-5 cells) of 250 to 500 nM. In addition, the “Percent degradation (at 100 nM) SMARCA2” value on SMARCA2 was determined as 41%.

In the assay on SK-MEL-5 cells (SK-MEL-5, SK-MEL-5 cells), `Cc1ncsc1-c1ccc([C@H](C)NC(=O)[C@@H]2C[C@@H](O)CN2C(=O)[C@@H](NC(=O)CN2CCC(c3ccc(-c4cnnc(-c5ccccc5O)c4)cn3)CC2)C(C)(C)C)cc1` [Compound 27, (2S,4R)-4-hydroxy-1-((S)-2-(2-(4-(5-(6-(2-hydroxyphenyl)pyridazin-4-yl)pyridin-2-yl)piperidin-1-yl)acetamido)-3,3-dimethylbutanoyl)-N-((S)-1-(4-(4-methylthiazol-5-yl)phenyl)ethyl)pyrrolidine-2-carboxamide] registered an EC50 greater than 500 nM.

In the case of `Cc1ncsc1-c1ccc([C@H](C)NC(=O)[C@@H]2C[C@@H](O)CN2C(=O)[C@@H](NC(=O)CN2CC(c3ccc(-c4cnnc(-c5ccccc5O)c4)cc3)C2)C(C)(C)C)cc1` [Compound 21, (2S,4R)-4-hydroxy-1-((S)-2-(2-(3-(4-(6-(2-hydroxyphenyl)pyridazin-4-yl)phenyl)azetidin-1-yl)acetamido)-3,3-dimethylbutanoyl)-N-((S)-1-(4-(4-methylthiazol-5-yl)phenyl)ethyl)pyrrolidine-2-carboxamide], the “Percent degradation (at 100 nM) SMARCA4” value on SMARCA4 is 4%. The same molecule had an EC50 with SK-MEL-5 cells (SK-MEL-5, SK-MEL-5 cells) greater than 500 nM. In addition, the “Percent degradation (at 100 nM) SMARCA2” value on SMARCA2 amounted to 21%.

Take `Cc1ncsc1-c1ccc([C@H](C)NC(=O)[C@@H]2C[C@@H](O)CN2C(=O)[C@@H](NC(=O)CN2CCC(c3cccc(-c4cnnc(-c5ccccc5O)c4)c3)CC2)C(C)(C)C)cc1` [Compound 23, (2S,4R)-4-hydroxy-1-((S)-2-(2-(4-(3-(6-(2-hydroxyphenyl)pyridazin-4-yl)phenyl)piperidin-1-yl)acetamido)-3,3-dimethylbutanoyl)-N-((S)-1-(4-(4-methylthiazol-5-yl)phenyl)ethyl)pyrrolidine-2-carboxamide]: the “Percent degradation (at 100 nM) SMARCA4” value on SMARCA4 amounted to 0%. For the same molecule, in the assay on SK-MEL-5 cells (SK-MEL-5, SK-MEL-5 cells), the EC50 is greater than 500 nM. Moreover, the “Percent degradation (at 100 nM) SMARCA2” value at SMARCA2 came out at 15%.

For `Cc1ncsc1-c1ccc([C@H](C)NC(=O)[C@@H]2C[C@@H](O)CN2C(=O)C(c2cc(OCCN(C)c3ccc(-c4cnnc(-c5ccccc5O)c4)cc3)no2)C(C)C)cc1` (mixture of isomers) [Compound 44, (2S,4R)-4-hydroxy-1-(2-(3-(2-((4-(6-(2-hydroxyphenyl)pyridazin-4-yl)phenyl)(methyl)amino)ethoxy)isoxazol-5-yl)-3-methylbutanoyl)-N-((S)-1-(4-(4-methylthiazol-5-yl)phenyl)ethyl)pyrrolidine-2-carboxamide], the “Percent degradation (at 100 nM) SMARCA4” value on SMARCA4 came to 6%. The “Percent degradation (at 100 nM) SMARCA2” value at SMARCA2 was found to be 22%.

Consider `Cc1ncsc1-c1ccc([C@H](C)NC(=O)[C@@H]2C[C@@H](O)CN2C(=O)[C@@H](NC(=O)CN2CCN(c3ccc(-c4cnnc(-c5ccccc5O)c4)cc3F)CC2)C(C)(C)C)cc1` [Compound 26, (2S,4R)-1-((S)-2-(2-(4-(2-fluoro-4-(6-(2-hydroxyphenyl)pyridazin-4-yl)phenyl)piperazin-1-yl)acetamido)-3,3-dimethylbutanoyl)-4-hydroxy-N-((S)-1-(4-(4-methylthiazol-5-yl)phenyl)ethyl)pyrrolidine-2-carboxamide], for which, on SMARCA4, the “Percent degradation (at 100 nM) SMARCA4” value is reported as 0%. For the same molecule, on SMARCA2, the “Percent degradation (at 100 nM) SMARCA2” value is listed as 89%.

For the molecule `Cc1ncsc1-c1ccc([C@H](C)NC(=O)[C@@H]2C[C@@H](O)CN2C(=O)[C@@H](NC(=O)CN2CCC(n3cc(-c4cnnc(-c5ccccc5O)c4)cn3)CC2)C(C)(C)C)cc1` [Compound 33, (2S,4R)-4-hydroxy-1-((S)-2-(2-(4-(4-(6-(2-hydroxyphenyl)pyridazin-4-yl)-1H-pyrazol-1-yl)piperidin-1-yl)acetamido)-3,3-dimethylbutanoyl)-N-((S)-1-(4-(4-methylthiazol-5-yl)phenyl)ethyl)pyrrolidine-2-carboxamide], the “Percent degradation (at 100 nM) SMARCA4” value at SMARCA4 was 0%. In addition, the “Percent degradation (at 100 nM) SMARCA2” value on SMARCA2 is listed as 69%.

Regarding `Cc1ncsc1-c1ccc([C@H](C)NC(=O)[C@@H]2C[C@@H](O)CN2C(=O)[C@@H](NC(=O)CN2CCC(Nc3ccc(-c4cnnc(-c5ccccc5O)c4)cc3)CC2)C(C)(C)C)cc1` [Compound 45, (2S,4R)-4-hydroxy-1-((S)-2-(2-(4-((4-(6-(2-hydroxyphenyl)pyridazin-4-yl)phenyl)amino)piperidin-1-yl)acetamido)-3,3-dimethylbutanoyl)-N-((S)-1-(4-(4-methylthiazol-5-yl)phenyl)ethyl)pyrrolidine-2-carboxamide], the EC50 in the assay on SK-MEL-5 cells (SK-MEL-5 cells) was less than 250 nM. In addition, the “Percent degradation (at 100 nM) SMARCA2” value on SMARCA2 was 94%.
